Laboratory results reported in patent US10112918B2, “15-oxospiramilactone derivatives, preparation method and uses thereof” (Kunming Institute of Botany, The Chinese Academy of Sciences, priority 2013, dated 2018).
Like-named read-outs stand apart in the source and are kept apart here.

Legend:
Type in all cases: cell-based
[1] = test system: SMMC-7721 (human hepatoma cells); assay: MTT inhibition of tumor cell growth, SMMC-7721; conditions: Homo sapiens
Method in brief: (§1)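 Compound exposure lasts 48 h at 37° C on cells plated at 5000-10000 per well in serum-containing medium. Viability is read by MTT reduction at 595 nm, and IC50 is computed with the two-point Reed and Muench method.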

[2] = test system: MCF-7 (human breast cancer cells); assay: MTT inhibition of tumor cell growth, MCF-7; conditions: Homo sapiens
Method in brief: as §1

[3] = test system: HL-60 (human promyelocytic leukemia cells); assay: MTT inhibition of tumor cell growth, HL-60; conditions: Homo sapiens
Method in brief: as §1

[4] = test system: A-549 (Human lung adenocarcinoma cells); assay: MTT inhibition of tumor cell growth, A-549; conditions: Homo sapiens
Method in brief: as §1

[5] = test system: SW-480 (human colon cancer cells); assay: MTT inhibition of tumor cell growth, SW-480; conditions: Homo sapiens
Method in brief: as §1

[6] = test system: Wnt signaling pathway (Top-Flash reporter gene); assay: Top-Flash Wnt reporter gene assay in HEK293T cells with Wnt3a conditioned medium; conditions: Homo sapiens, HEK-293T, 6 h, 6 h
Method in brief: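 HEK293T transfected with TOP-flash (5 ng/well) plus GFP plasmid for normalization, then treated 6 h with mouse Wnt3a conditioned medium from L cells, with or without compound. GFP-normalized luciferase minus DMSO-only background, scaled to Wnt-induced activity; IC50 at 0.5 relative residual activity from 4-parameter logistic fit.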

[7] = SMMC-7721, 48 h, Table 4, derivatives obtained by reduction of the lactonic ring
[8] = MCF7, 48 h, Table 4, derivatives obtained by reduction of the lactonic ring
[9] = HL-60, 48 h, Table 4, derivatives obtained by reduction of the lactonic ring
[10] = A549, 48 h, Table 4, derivatives obtained by reduction of the lactonic ring
[11] = SW480, 48 h, Table 4, derivatives obtained by reduction of the lactonic ring, read-out: IC50 SW-480
[12] = SMMC-7721, 48 h, Table 5, derivatives having double Michael reaction acceptor
[13] = MCF7, 48 h, Table 5, derivatives having double Michael reaction acceptor
[14] = HL-60, 48 h, Table 5, derivatives having double Michael reaction acceptor
[15] = A549, 48 h, Table 5, derivatives having double Michael reaction acceptor
[16] = SW480, 48 h, Table 5, derivatives having double Michael reaction acceptor, read-out: IC50 SW-480
[17] = SW480, 48 h, Table 6, double Michael reaction acceptor derivatives, read-out: IC50 SW-480, derivatives having double Michael reaction acceptor
[18] = Table 9, HEK293T, Wnt3a conditioned medium, read-out: IC50(μM), inhibitory activity on the Wnt signaling pathway
[19] = SMMC-7721, 48 h, Table 2, derivatives having potential Michael reaction acceptor
[20] = MCF7, 48 h, Table 2, derivatives having potential Michael reaction acceptor
[21] = HL-60, 48 h, Table 2, derivatives having potential Michael reaction acceptor
[22] = A549, 48 h, Table 2, derivatives having potential Michael reaction acceptor
[23] = SW480, 48 h, Table 2, derivatives having potential Michael reaction acceptor, read-out: IC50 SW-480
[24] = SMMC-7721, Table 7 (first), alkaloid derivatives, 48 h
[25] = MCF7, Table 7 (first), alkaloid derivatives, 48 h
[26] = HL-60, Table 7 (first), alkaloid derivatives, 48 h
[27] = A549, Table 7 (first), alkaloid derivatives, 48 h
[28] = SW480, Table 7 (first), alkaloid derivatives, 48 h, read-out: IC50 SW-480
[29] = read-out: IC50 (μM), inhibitory activity on the Wnt signaling pathway
[30] = Table 8, HEK293T, Wnt3a conditioned medium, read-out: IC50 (μM), inhibitory activity on the Wnt signaling pathway

## C=C1C(=O)C23CC[C@H]1CC2[C@]1(CO)CCC[C@@](C)(CO)C1C[C@H]3O (stereo partly drawn) [Compound 46]
[1]; [7]
  IC50: 4.48 µM
[2]; [8]
  IC50: 8.07 µM
[3]; [9]
  IC50: 4.28 µM
[4]; [10]
  IC50: 4.28 µM
[5]; [11]
  IC50: 4.42 µM
[6]; Table 10, HEK293T, Wnt3a conditioned medium, read-out: IC50 (μM), inhibitory activity on the Wnt signaling pathway
  IC50: 27.7 ± 2.8 µM

## C=C1C(=O)[C@@]23CC[C@@H](CC2[C@@]24CCC[C@@](C)(CO[C@H]2OC)C14)C(=C)C3=O (stereo partly drawn) [Compound 23]
[1]; [12]
  IC50: 0.15 µM
[2]; [13]
  IC50: 0.24 µM
[3]; [14]
  IC50: 0.51 µM
[4]; [15]
  IC50: 0.2 µM
[5]; [16]
  IC50: 0.39 µM
[5]; [17]
  IC50: 0.79 µM
[6]; [18]
  IC50: 6.72 ± 1.11 µM

## C=C1C(=O)C23CC[C@H]1CC2[C@]1(COC(C)=O)CCC[C@@](C)(COC(C)=O)C1[C@H](COS(C)(=O)=O)C3=O (stereo partly drawn) [Compound 49]
[1]; [19]
  IC50: 14 µM
[2]; [20]
  IC50: 12.8 µM
[3]; [21]
  IC50: 6.5 µM
[4]; [22]
  IC50: 11 µM
[5]; [23]
  IC50: 15.5 µM
[6]; [18]
  IC50: 58.2 ± 1.18 µM

## C=C1C(=O)[C@@]23CC[C@@H](CC2[C@@]24CCC[C@@](C)(COC2=O)C14)C(=C)C3=O (stereo partly drawn) [Compound 8]
[1]; [12]
  IC50: 0.72 µM
[2]; [13]
  IC50: 0.96 µM
[3]; [14]
  IC50: 2.02 µM
[4]; [15]
  IC50: 0.59 µM
[5]; [16]
  IC50: 0.66 µM
[5]; [17]
  IC50: 0.45 µM
[6]; [18]
  IC50: 4.09 ± 0.07 µM

## C=C1C(=O)[C@]23CC[C@H]1CC2[C@@]12CCC[C@@]4(C)C(=O)N(CCO)[C@@H]1O[C@@H]3CC24 (stereo partly drawn) [Compound 83]
[1]; [24]
  IC50: 18.4 µM
[2]; [25]
  IC50: 13.2 µM
[3]; [26]
  IC50: 18.6 µM
[4]; [27]
  IC50: 17.9 µM
[5]; [28]
  IC50: 12.4 µM
[6]; [29]
  IC50: > 60 µM

## C=C1C(=O)C23CC[C@H]1CC2[C@@]12CCC[C@@](C)(C(=O)OC1=O)C2CC3=O (stereo partly drawn) [Compound 39]
[1]; SMMC-7721, 48 h, Table 3, single Michael reaction acceptor, modified lactonic ring
  IC50: 34.8 µM
[2]; MCF7, 48 h, Table 3, single Michael reaction acceptor, modified lactonic ring
  IC50: 21.5 µM
[3]; HL-60, 48 h, Table 3, single Michael reaction acceptor, modified lactonic ring
  IC50: 28.8 µM
[4]; A549, 48 h, Table 3, single Michael reaction acceptor, modified lactonic ring
  IC50: 17.5 µM
[5]; SW480, 48 h, Table 3, single Michael reaction acceptor, modified lactonic ring, read-out: IC50 SW-480
  IC50: 20.7 µM
[6]; [30]
  IC50: > 60 µM

## C=C1C(=O)[C@@]23CC[C@@H](CC2[C@@]24CCC[C@@](C)(CN(CCO)C2)C14)C(=C)C3=O (stereo partly drawn) [Compound 93]
[1]; [24]
  IC50: 11.5 µM
[2]; [25]
  IC50: 3.57 µM
[3]; [26]
  IC50: 6.61 µM
[4]; [27]
  IC50: 6.5 µM
[5]; [28]
  IC50: 2.81 µM
[6]; [29]
  IC50: 17 ± 1.28 µM

## C=C1C(=O)[C@]23CC[C@H]1CC2[C@@]12CCC[C@@]4(C)C5OCCN5C1O[C@@H]3CC42 (stereo partly drawn) [Compound 77]
[1]; [24]
  IC50: 1.04 µM
[2]; [25]
  IC50: 0.67 µM
[3]; [26]
  IC50: 1.34 µM
[4]; [27]
  IC50: 2.03 µM
[5]; [28]
  IC50: 1.97 µM
[6]; [29]
  IC50: > 60 µM

## C=C1C(=O)C23CC[C@H]1CC2[C@]1(COS(C)(=O)=O)CCC[C@@](C)(COS(C)(=O)=O)C1C[C@H]3O (stereo partly drawn) [Compound 72a]
[1]; [7]
  IC50: 0.93 µM
[2]; [8]
  IC50: 1.55 µM
[3]; [9]
  IC50: 1.37 µM
[4]; [10]
  IC50: 1.86 µM
[5]; [11]
  IC50: 1.85 µM
[5]; SW480, 48 h, Table 6, 7-hydroxyl derivatives and controls, read-out: IC50 SW-480, 7-hydroxyl derivatives
  IC50: 2.23 µM
[6]; [30]
  IC50: 12.6 ± 1.04 µM

## C=C1C(=O)C23CC[C@H]1CC2[C@@]12CCC[C@@](C)(COC1=O)C2C[C@H]3OC(=O)c1ccco1 (stereo partly drawn) [Compound 1n]
[1]; SMMC-7721, 48 h, Table 1, 7-hydroxy derivatives of S-3
  IC50: 3.05 µM
[2]; MCF7, 48 h, Table 1, 7-hydroxy derivatives of S-3
  IC50: 3.11 µM
[3]; HL-60, 48 h, Table 1, 7-hydroxy derivatives of S-3
  IC50: 4.01 µM
[4]; A549, 48 h, Table 1, 7-hydroxy derivatives of S-3
  IC50: 2.14 µM
[5]; SW480, 48 h, Table 1, 7-hydroxy derivatives of S-3, read-out: IC50 SW-480
  IC50: 2.22 µM
[6]; Table 7 (second), derivatives modified on 7-hydroxyl of S-3, HEK293T, Wnt3a conditioned medium, read-out: IC50 (μM), inhibitory activity on the Wnt signaling pathway
  IC50: 18.9 ± 2.48 µM

## C=C1C(=O)[C@]23CC[C@H]1CC2[C@@]12CCC[C@@](C)(COC1=O)C2[C@H](Cl)C3=O (stereo partly drawn) [Compound 14]
[1]; [19]
  IC50: 1.96 µM
[2]; [20]
  IC50: 2.63 µM
[3]; [21]
  IC50: 3.82 µM
[4]; [22]
  IC50: 3.03 µM
[5]; [23]
  IC50: 2.38 µM
[6]; [18]
  IC50: 20.1 ± 1.32 µM
